Data taken from US20230357233A1, “HETEROARYL COMPOUNDS, PREPARATION METHODS AND USES THEREOF” (INVENTISBIO CO., LTD., priority 2020, published 2023).

Assays:
Ba/F3_KRAS^G12D cells = Ba/F3_KRAS^G12D cells (Homo sapiens, UniProt P01116, G12D, cells depend on it); experiment: Ba/F3 KRAS^G12D cell proliferation assay (cell-titer Glo); type: cell-based; settings: cell growth inhibition, treated with the compounds for 3 days, read-out: BaF3_KRAS^G12D IC50
[1] = biological target: recombinant human KRAS^G12D protein (Homo sapiens, UniProt P01116, G12D); experiment: Temperature-dependent Fluorescence (TdF) KRAS^G12D protein binding assay; settings: 6 μM KRAS^G12D Protein, 10 μM compound, Sypro Orange; Kd calculated from fluorescent shift
Sequence of recombinant human KRAS^G12D protein (P01116 1-188 isoform P01116-2 G12D): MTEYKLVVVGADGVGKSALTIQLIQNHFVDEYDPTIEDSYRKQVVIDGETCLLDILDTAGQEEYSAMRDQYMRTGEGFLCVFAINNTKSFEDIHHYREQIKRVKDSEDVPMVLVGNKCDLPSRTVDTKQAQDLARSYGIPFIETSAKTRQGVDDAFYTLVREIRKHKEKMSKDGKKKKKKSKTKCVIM
Description: The TdF assay was conducted in the 96-well-based real-time fluorescence plate reader (ABI 7500 or Roche LightCycler 480). Fluorescent dye Sypro Orange (Sigma) was used to monitor the protein folding-unfolding transition. Protein-compound binding was gauged by the shift in the unfolding transition temperature (ΔTm) acquired with and without compound. […] The sample plate was heated from 30° C. to 95° C. with a thermal ramping rate of […], taking a fluorescence reading every 0.4° C. using a CY3 channel matching the excitation and emission wavelengths of Sypro Orange (λ ex 470 nm; λ em 570 nm). Binding affinity (Kd value) was calculated based on the degree of fluorescent shift of the protein with and without compound.

Sequence of Ba/F3_KRAS^G12D cells (P01116 whole entry G12D): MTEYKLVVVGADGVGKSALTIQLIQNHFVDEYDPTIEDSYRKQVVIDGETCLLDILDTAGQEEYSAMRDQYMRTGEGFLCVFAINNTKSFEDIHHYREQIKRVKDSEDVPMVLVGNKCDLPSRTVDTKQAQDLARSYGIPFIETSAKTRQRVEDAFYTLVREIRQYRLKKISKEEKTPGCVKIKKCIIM

| GI50 (Ba/F3_KRAS^G12D cells) | Kd [1] | SMILES |
| --- | --- | --- |
| 0.5 to 5 µM | > 5 µM | CCc1cccc2cc(O)cc(-c3nc(C)c4c(N5CC6CCC(C5)N6)nc(OC[C@@]56CCCN5C[C@H](F)C6)nc4c3C3CC3)c12 [Compound 122] |
| 0.5 to 5 µM | > 5 µM | Oc1cc(-c2ncc3c(N4CC5CCC(C4)N5)nc(OC[C@@]45CCCN4C[C@H](F)C5)cc3n2)c2ccccc2c1 [Compound 62] |
| < 0.5 µM | ≤ 0.5 µM | C#Cc1c(F)ccc2cc(O)cc(-c3nc(Cl)c4c(N5CC6CCC(C5)N6)nc(OC[C@@]56CCCN5C[C@H](F)C6)nc4c3F)c12 [Compound 132] |
| > 5 µM | > 5 µM | CN1CCC[C@H]1Cn1c(=O)nc(N2C[C@H]3CC[C@@H](C2)N3)c2cc(F)c(-c3cccc4cccc(Cl)c34)nc21 [Compound 45] |
| < 0.5 µM | ≤ 0.5 µM | Fc1c(-c2cccc3cccc(Cl)c23)ncc2c(N3CC4CCC(C3)N4)nc(OC[C@@]34CCCN3C[C@H](F)C4)nc12 [Compound 30] |
| > 5 µM | > 5 µM | CN1CCC[C@H]1Cn1c(=O)nc(N2CC3CCC(C2)N3)c2cc(F)c(-c3cc(O)cc4ccccc34)nc21 [Compound 39] |
| < 0.5 µM | ≤ 0.5 µM | Fc1c(-c2cccc3cccc(Cl)c23)ncc2c(N3CC4CCC(C3)N4)nc(OCC34CCCN3CCC4)nc12 [Compound 6] |
| 0.5 to 5 µM | 0.5 to 5 µM | Cc1nc(-c2cc(O)cc3cccc(Cl)c23)c(F)c2nc(OC[C@@]34CCCN3C[C@H](F)C4)nc(N3CC4CCC(C3)N4C)c12 [Compound 90] |
| > 5 µM | > 5 µM | Nc1cccc(F)c1-c1nc2cc(OCC34CCCN3CCC4)nc(N3CC4CCC(C3)N4)c2cc1Cl [Compound 37] |
| > 5 µM | 0.5 to 5 µM | CN1CCC[C@H]1COc1nc(N2CC3CCC(C2)N3)c2[nH]c(=O)c(-c3cc(O)cc4ccccc34)cc2n1 [Compound 92] |
| < 0.5 µM | ≤ 0.5 µM | C#Cc1c(F)ccc2cc(O)cc(-c3nc(C)c4c(N5CC6CCC(C5)N6)nc(OC[C@@]56CCCN5C[C@H](F)C6)nc4c3Cl)c12 [Compound 134] |
| 0.5 to 5 µM | > 5 µM | Cc1nc(-c2cccc3cccc(CCC#N)c23)c(F)c2nc(OC[C@@]34CCCN3C[C@H](F)C4)nc(N3CC4CCC(C3)N4)c12 [Compound 123] |
| > 5 µM | > 5 µM | Clc1cc2c(N3CC4CCC(C3)N4)nc(OCC34CCCN3CCC4)nc2nc1-c1cccc2ccccc12 [Compound 2] |
| < 0.5 µM | ≤ 0.5 µM | Oc1cc(-c2ncc3c(N4CC5CCC(C4)N5)nc(OC[C@@]45CCCN4C[C@H](F)C5)nc3c2F)c2c(Cl)cccc2c1 [Compound 36] |
| < 0.5 µM | ≤ 0.5 µM | CCc1cccc2cc(O)cc(-c3nc(C)c4c(N5CC6CCC(C5)N6)nc(OC[C@@]56CCCN5C[C@H](F)C6)nc4c3C)c12 [Compound 117] |
| 0.5 to 5 µM | > 5 µM | Cc1nc(-c2cc(C(F)F)cc3cccc(Cl)c23)c(F)c2nc(OC[C@@]34CCCN3C[C@H](F)C4)nc(N3CC4CCC(C3)N4)c12 [Compound 116] |
| < 0.5 µM | ≤ 0.5 µM | Oc1cc(-c2ncc3c(N4C5CCC4CNC5)nc(OC[C@@]45CCCN4C[C@H](F)C5)nc3c2F)c2c(Cl)cccc2c1 [Compound 70] |
| 0.5 to 5 µM | > 5 µM | Fc1ccccc1-c1nc2cc(OCC34CCCN3CCC4)nc(N3CC4CCC(C3)N4)c2cc1F [Compound 16] |
| 0.5 to 5 µM | > 5 µM | Clc1cccc2cccc(-c3nc(OCC45CCCN4CCC5)c4ccc(N5CCNCC5)nc4c3Br)c12 [Compound 83] |
| < 0.5 µM | > 5 µM | Clc1cccc2cccc(-c3cc4nc(N5CCNCC5)ccc4c(OCC45CCCN4CCC5)n3)c12 [Compound 82] |
| < 0.5 µM | ≤ 0.5 µM | C#Cc1c(F)ccc2cc(O)cc(-c3nc(OC(C)C)c4c(N5CC6CCC(C5)N6)nc(OC[C@@H]5CCCN5C)nc4c3F)c12 [Compound 195] |
| 0.5 to 5 µM | > 5 µM | CN1CCC[C@H]1COc1nc(N2CC3CCC(C2)N3)c2cc(F)c(-c3cccc4cccc(Cl)c34)nc2n1 [Compound 8] |
| 0.5 to 5 µM | > 5 µM | CN1CCC[C@@H]1COc1nc(-c2cccc3ccccc23)c(F)c2nc(N3CCNCC3)ccc12 [Compound 54] |
| 0.5 to 5 µM | > 5 µM | Fc1cc2c(N3CC4CCC(C3)N4)nc(OCC34CCCN3CCC4)cc2nc1-c1cccc2ccccc12 [Compound 14] |
| < 0.5 µM | ≤ 0.5 µM | CCOc1nc(-c2cc(O)cc3ccc(F)c(Cl)c23)c(F)c2nc(OC[C@@]34CCCN3C[C@H](F)C4)nc(N3CC4CCC(C3)N4)c12 [Compound 173] |
| > 5 µM | 0.5 to 5 µM | Oc1cc(-c2ncc3c(N4CC5CCC(C4)N5)cc(OCC45CCCN4CCC5)nc3c2F)c2c(Cl)cccc2c1 [Compound 71] |
| > 5 µM | > 5 µM | CCc1cccc2cc(O)cc(-c3cc4c(cn3)c(N3CC5CCC(C3)N5)nc(=O)n4C[C@@H]3CCCN3C)c12 [Compound 88] |

| GI50 (Ba/F3_KRAS^G12D cells) | Kd [1] | SMILES |
| --- | --- | --- |
| < 0.5 µM | ≤ 0.5 µM | C#Cc1c(F)ccc2cc(O)cc(-c3nc(OC)c4c(N5CC6CCC(C5)N6)nc(OC[C@@H]5CCCN5C)nc4c3F)c12 [Compound 160] |
| > 5 µM | 0.5 to 5 µM | Oc1cc(-c2ncc3c(N4CC5CCC(C4)N5)nc(OCC45CCCN4CCC5)c(Cl)c3n2)c2c(Cl)cccc2c1 [Compound 65] |
| < 0.5 µM | ≤ 0.5 µM | Fc1ccc2cccc(-c3ncc4c(N5CC6CCC(C5)N6)nc(OC[C@@]56CCCN5C[C@H](F)C6)nc4c3F)c2c1Cl [Compound 76] |
| > 5 µM | > 5 µM | Oc1cc(-c2ncc3c(N4CC5(CCCN5)C4)nc(OC[C@@]45CCCN4C[C@H](F)C5)nc3c2F)c2c(Cl)cccc2c1 [Compound 97] |
| 0.5 to 5 µM | > 5 µM | Fc1c(-c2cccc3cccc(Cl)c23)nc(OCC23CCCN2CCC3)c2ccc(N3CCNCC3)nc12 [Compound 31] |
| 0.5 to 5 µM | > 5 µM | CN(C)CCOc1cc2nc(-c3ccccc3F)c(F)cc2c(N2C3CCC2CNC3)n1 [Compound 49] |
| > 5 µM | > 5 µM | Cc1cc(N)nc(-c2nc(C)c3c(N4CC5CCC(C4)N5)nc(OC[C@@]45CCCN4C[C@H](F)C5)nc3c2F)c1C1CC1 [Compound 102] |
| 0.5 to 5 µM | > 5 µM | Oc1cc(-c2ncc3c(N4CC5CCC(C4)N5)nc(OC[C@@]45CCCN4C[C@H](F)C5)c(Cl)c3n2)c2ccccc2c1 [Compound 63] |
| 0.5 to 5 µM | > 5 µM | Fc1c(-c2cccc3cccc(Cl)c23)ncc2c(N3CCNCC3)cc(OCC34CCCN3CCC4)nc12 [Compound 67] |
| > 5 µM | > 5 µM | Oc1cc(-c2nc(OCC34CCCN3CCC4)c3ccc(N4CCNCC4)nc3c2F)c2c(Cl)cccc2c1 [Compound 57] |
| 0.5 to 5 µM | ≤ 0.5 µM | CCc1cccc2cc(O)cc(-c3ncc4c(N5CC6CCC(C5)N6)nc(OC[C@@]56CCCN5C[C@H](F)C6)c(Cl)c4n3)c12 [Compound 61] |
| 0.5 to 5 µM | > 5 µM | c1ccc2c(-c3ncc4c(N5CC6CCC(C5)N6)nc(OCC56CCCN5CCC6)cc4n3)cccc2c1 [Compound 21] |
| 0.5 to 5 µM | > 5 µM | Oc1cc(-c2nc3cc(OC[C@@]45CCCN4C[C@H](F)C5)nc(N4CC5CCC(C4)N5)c3cc2Cl)c2c(Cl)cccc2c1 [Compound 43] |
| < 0.5 µM | ≤ 0.5 µM | C#Cc1c(F)ccc2cc(O)cc(-c3nc(OC(C)C)c4c(N5CC6CCC(C5)N6)nc(OC[C@@H]5C[C@@H](F)CN5C)nc4c3F)c12 [Compound 197] |
| > 5 µM | > 5 µM | Fc1cc2c(N3C4CCC3CNC4)nc(OCC34CCCN3CCC4)nc2nc1-c1cccc2cccc(Cl)c12 [Compound 9] |
| 0.5 to 5 µM | > 5 µM | CN(C)C1CN(c2nc(-c3cccc4cccc(Cl)c34)c(F)c3nc(N4CCNCC4)ccc23)C1 [Compound 50] |
| > 5 µM | > 5 µM | CN1CCC[C@H]1Cn1c(=O)nc(N2CC3CCC(C2)N3)c2cnc(-c3cc(O)cc4cccc(Cl)c34)c(F)c21 [Compound 44] |
| 0.5 to 5 µM | > 5 µM | C[C@H]1CNCCN1c1nc(OCCN(C)C)c(-c2cccnc2C2CC2)c2nc(-c3ccccc3F)c(F)cc12 [Compound 1] |
| < 0.5 µM | ≤ 0.5 µM | Cc1nc(-c2cc(O)cc3ccc(F)c(Cl)c23)c(F)c2nc(OC[C@@]34CCCN3C[C@H](F)C4)nc(N3CC4CCC(C3)N4)c12 [Compound 126] |
| > 5 µM | > 5 µM | CN(C)CCCOc1nc(N2CC3CCC(C2)N3)c2cc(Cl)c(-c3cccc4ccccc34)nc2n1 [Compound 4] |
| 0.5 to 5 µM | ≤ 0.5 µM | Oc1cc(-c2ncc3c(N4CC5CCC(C4)N5)nc(OCC45CCCN4CCC5)nc3c2F)c2ccccc2c1 [Compound 12] |
| > 5 µM | > 5 µM | Oc1cc(-c2ncc3c(N4CC5CCC(C4)N5)nc(OCC45CCCN4CCC5)cc3n2)c2c(Cl)cccc2c1Cl [Compound 59] |
| 0.5 to 5 µM | ≤ 0.5 µM | CCc1cccc2cc(O)cc(-c3nc(O)c4c(N5CC6CCC(C5)N6)nc(OC[C@@]56CCCN5C[C@H](F)C6)nc4c3F)c12 [Compound 133] |
| < 0.5 µM | ≤ 0.5 µM | CCc1cccc2c(F)c(O)cc(-c3nc(C)c4c(N5CC6CCC(C5)N6)nc(OC[C@@]56CCCN5C[C@H](F)C6)nc4c3F)c12 [Compound 124] |
| > 5 µM | > 5 µM | CN1CCC[C@H]1Cn1c(=O)nc(N2CCNCC2)c2cc(F)c(-c3cccc4cccc(Cl)c34)nc21 [Compound 38] |
| > 5 µM | ≤ 0.5 µM | N#Cc1cccc2cc(O)cc(-c3ncc4c(N5CC6CCC(C5)N6)nc(OCC56CCCN5CCC6)nc4c3F)c12 [Compound 47] |
